The values below come from patent US20260227407A1, “SYNTHETIC GLYCOPEPTIDES AND DERIVATIVES FOR THE EARLY-STAGE DETECTION OF CANCER BIOMARKERS IN MUC1-POSITIVE TUMORS” (FUNDACIÓN RIOJA SALUD, priority 2023, published 2026).

The target in one test is 5E5 (anti-MUC1) antibody. Description: Antigen-antibody binding studies by surface plasmon resonance (SPR). Details: species or system mouse. As to conditions: for Kd: SPR, 5E5 immobilised on CM5 chip, 20° C. and 7.5 pH. As to the method:
Surface plasmon resonance (SPR) experiments were performed with a Biacore X-100 apparatus (Biacore, GE) in HBS-EP buffer solution at 7.5 pH (10 mM Hepes, 150 mM NaCl, 3 mM EDTA, with 2% DMSO and 0.05% Tween X100) at […]. This is the running buffer. The 5E5 antibody (from Abcam) was immobilised on a CM5 sensor chip (Biacore, GE) following the standard amine coupling method.^30 Briefly, the carboxymethyl dextran surface of flow cell 2 was activated by a 7 min injection of a 1:1 ratio of a 0.4 M aqueous solution of 1-ethyl-3-(3-dimethylaminopropyl) carbodiimide (EDC) and 0.1 M sulfo-N-hydroxysuccinimide. As such, the antibody was bound to the surface using various dilutions in 10 mM sodium acetate, 4.0. pH during a 7 min injection. […] The flow cell 1 was used as a reference and treated as the flow cell 2 (amine coupling method) without protein. Before use, 50 mM stock solutions of peptide ligand were diluted to the final concentration in the running buffer. Therefore, a series of different compounds were injected into the sensor chip at a flow rate of 30 μl/min for a period of 1 min followed by a dissociation period of 1 min. No regeneration was required. FIGS. 2A and 2B show the response-concentration curves obtained for the binding of glycopeptide 21 and 24, respectively, towards the 5E5 (anti-MUC1) antibody at 20° C. in SPR experiments.
The sensogram data were obtained in duplicate and processed with the Biae Evaluation X100 software (Biacore, GE). Experimental data from the affinity measurements were fitted to a specific two-site binding model using Prism software.

The target of test [1] is Glycopeptide 24 (…(GalNCOEt)APPA). The test can be described thus: SPR, ratio of the KD values of glycopeptides 21 and 24 for 5E5.
Test [2] has the same target. Description: SPR (Biacore X-100), 5E5 immobilised on CM5 chip, glycopeptide as analyte, steady-state fit.
The target in test [3] is Glycopeptide 21 (…(GalNAc)APPA). The test is described as above.

In turn, “GGGGPAPGST(GalNAc)APPA [Glycopeptide 21, reference compound]” showed a Kd at 5E5 (anti-MUC1) antibody of 540 nM.

Consider “GGGGPAPGST(GalNCOEt)APPA [Glycopeptide 24]”, for which the Kd at 5E5 (anti-MUC1) antibody was determined as 83 nM. In addition, the “affinity relative to the natural glycopeptide (21)” value with 5E5 (anti-MUC1) antibody (anti-MUC1 antibody 5E5, SPR) is on record as 6.5 times.

Regarding mouse monoclonal anti-MUC1 5E5 antibody, the fold higher affinity than the natural peptide (21) in test [1] amounted to 6.5 times. The Kd in test [2] came to 83 nM; in test [3], 540 nM.
